Measured values taken from paper PMC5840262, “Design, Synthesis and Evaluation of Branched RRWQWR-Based Peptides as Antibacterial Agents Against Clinically Relevant Gram-Positive and Gram-Negative Pathogens” (Frontiers in Microbiology, 2018).
Converted amounts (≈) assume the structure as drawn. Like-named read-outs stand apart in the source and are kept apart here. Bridge positions count the residues as written; N and C are the ends. Square brackets hold non-standard residues; d marks the D form. Peptide text beside a SMILES is read from it. I, II: the chains in the order shown. Ahx = NCCCCCC(=O)O

Tests used:
Type in all cases: cell-based
[1] = system: Staphylococcus aureus clinical isolate 43,062
Method: (§1) For the clinical isolates, we used 20 different isolates from the Public Health Reference Laboratory collection of the Secretaría de Salud del Distrito (SdSD; Bogotá, Colombia). The samples were collected from June to December 2016. For each isolate, the patient parameters (age, gender and location) and the culture site were recorded for epidemiologic monitoring (Table 1). All isolates had been previously tested for antibiotic sensitivity at the Public Health Microbiology Laboratory using either the Phoenix™ system (Gram-positive) or the VITEK 2 system (Gram-negative).
(§2) We screened all five peptides against the ATCC reference strains and the clinical isolates according to Method M7-A7 of the National Committee for Clinical Laboratory Standards (CLSI, [2007]). The MIC50 and MBC values were determined using a broth microdilution and growth inhibition method previously reported by Leon-Calvijo et al. ([2015]), with some modifications (Wiegand et al., [2008]). Briefly, the MIC50 experiments comprised a liquid-inhibition growth assay in a sterile, untreated, 96-well flat-bottom tissue culture plate. The bacteria were cultured overnight n Mueller Hinton agar; three colonies were transferred to 8 mL of Mueller Hilton broth and incubated at 37°C until the mid-exponential phase of growth. The turbidity of the cultures was measured and adjusted spectrophotometrically to a McFarland standard of 0.5, and then diluted to a final concentration of 5 × 10^7 colony forming units (CFU) per well. Stock solutions (2,000 μM) of each test peptide were serially diluted to final concentrations (per well) of 200, 100, 50, 25, 12.5, and 6.25 μM. Each concentration was evaluated in duplicate and each assay was performed in triplicate.
(§3) Wells containing Mueller Hilton broth with bacterial inoculum only served as bacterial-growth controls. Additional controls included Mueller Hilton broth alone (as blank) and Mueller Hilton broth with ciprofloxacin (2 μg/mL; as positive control). The microplate was incubated for 24 h at 37°C, and growth inhibition was measured by monitoring the optical density at 620 nm (OD620). The MIC50 was defined as the peptide concentration at which bacterial growth was inhibited by 50%.
(§4) To determine the MBC, an aliquot from each well of the MIC50 assay was spread onto Mueller Hilton agar. After 18 h at 37°C, the concentration that inhibited bacterial growth was determined. Each of these tests was performed four times. MBC was defined as the lowest concentration of peptide at which the number of bacteria was reduced by 99.9% in vitro (European Committee for Antimicrobial Susceptibility Testing, [2000]).

[2] = system: Klebsiella pneumoniae clinical isolate 51,009
Method: as §1, §2, §3, §4

[3] = system: Staphylococcus aureus clinical isolate 48,577
Method: as §1, §2, §3, §4

[4] = system: Enterococcus faecium clinical isolate 1,225
Method: as §1, §2, §3, §4

[5] = system: Klebsiella pneumoniae clinical isolate 50,181
Method: as §1, §2, §3, §4

[6] = system: Pseudomonas aeruginosa clinical isolate 48,221
Method: as §1, §2, §3, §4

[7] = system: Klebsiella pneumoniae clinical isolate 49,644
Method: as §1, §2, §3, §4

[8] = system: Pseudomonas aeruginosa clinical isolate 48,526
Method: as §1, §2, §3, §4

[9] = system: Staphylococcus aureus clinical isolate 43,337
Method: as §1, §2, §3, §4

[10] = system: Enterococcus faecium clinical isolate 1,462
Method: as §1, §2, §3, §4

[11] = system: Klebsiella pneumoniae clinical isolate 50,424
Method: as §1, §2, §3, §4

[12] = system: Pseudomonas aeruginosa clinical isolate 47,661
Method: as §1, §2, §3, §4

[13] = system: Klebsiella pneumoniae clinical isolate 51,048
Method: as §1, §2, §3, §4

[14] = system: Pseudomonas aeruginosa clinical isolate 48,458
Method: as §1, §2, §3, §4

[15] = system: Staphylococcus aureus clinical isolate 48,575
Method: as §1, §2, §3, §4

[16] = system: Enterococcus faecium clinical isolate 550
Method: as §1, §2, §3, §4

[17] = system: Enterococcus faecium clinical isolate 1,461
Method: as §1, §2, §3, §4

N=C(N)NCCC[C@H](NC(=O)[C@H](Cc1c[nH]c2ccccc12)NC(=O)[C@H](CCC(N)=O)NC(=O)[C@H](Cc1c[nH]c2ccccc12)NC(=O)[C@H](CCCNC(=N)N)NC(=O)[C@@H](N)CCCNC(=N)N)C(=O)NCCCC[C@H](NC(=O)[C@H](CCCNC(=N)N)NC(=O)[C@H](Cc1c[nH]c2ccccc12)NC(=O)[C@H](CCC(N)=O)NC(=O)[C@H](Cc1c[nH]c2ccccc12)NC(=O)[C@H](CCCNC(=N)N)NC(=O)[C@@H](N)CCCNC(=N)N)C(=O)NCCCCCC(N)=O [LfcinB (20–25)2] (I: H-RRWQWRK[Ahx]-NH2 / II: H-RRWQWR; amide I:7-II:C; N-terminus assumed)
MBC ([1]; clinical isolate 43,062, 18 h): 50.0 µM (≈ 110 µg/mL)
MIC50 ([1]; clinical isolate 43,062, 24 h): 13.5 µM (≈ 29.7 µg/mL)
MBC ([2]; clinical isolate 51,009, 18 h): 25.0 µM (≈ 54.9 µg/mL)
MIC50 ([2]; clinical isolate 51,009, 24 h): 5.6 µM (≈ 12.3 µg/mL)
MBC ([3]; clinical isolate 48,577, 18 h): 50.0 µM (≈ 110 µg/mL)
MIC50 ([3]; clinical isolate 48,577, 24 h): 12.9 µM (≈ 28.3 µg/mL)
MBC ([4]; clinical isolate 1,225, 18 h): >100 µM
MIC50 ([4]; clinical isolate 1,225, 24 h): >100 µM
MBC ([5]; clinical isolate 50,181, 18 h): 100.0 µM (≈ 220 µg/mL)
MIC50 ([5]; clinical isolate 50,181, 24 h): 6.6 µM (≈ 14.5 µg/mL)
MBC ([6]; clinical isolate 48,221, 18 h): >100 µM
MIC50 ([6]; clinical isolate 48,221, 24 h): 64.2 µM (≈ 141 µg/mL)
MBC ([7]; clinical isolate 49,644, 18 h): 50.0 µM (≈ 110 µg/mL)
MIC50 ([7]; clinical isolate 49,644, 24 h): 12.3 µM (≈ 27 µg/mL)
MBC ([8]; clinical isolate 48,526, 18 h): >100 µM
MIC50 ([8]; clinical isolate 48,526, 24 h): 36.3 µM (≈ 79.7 µg/mL)
MBC ([9]; clinical isolate 43,337, 18 h): 25.0 µM (≈ 54.9 µg/mL)
MIC50 ([9]; clinical isolate 43,337, 24 h): 13.5 µM (≈ 29.7 µg/mL)
MBC ([10]; clinical isolate 1,462, 18 h): >100 µM
MIC50 ([10]; clinical isolate 1,462, 24 h): 49.8 µM (≈ 109 µg/mL)
MBC ([11]; clinical isolate 50,424, 18 h): >100 µM
MIC50 ([11]; clinical isolate 50,424, 24 h): 5.8 µM (≈ 12.7 µg/mL)
MBC ([12]; clinical isolate 47,661, 18 h): >100 µM
MIC50 ([12]; clinical isolate 47,661, 24 h): 13.4 µM (≈ 29.4 µg/mL)
MBC ([13]; clinical isolate 51,048, 18 h): 100.0 µM (≈ 220 µg/mL)
MIC50 ([13]; clinical isolate 51,048, 24 h): 5.7 µM (≈ 12.5 µg/mL)
MBC ([14]; clinical isolate 48,458, 18 h): >100 µM
MIC50 ([14]; clinical isolate 48,458, 24 h): 75.0 µM (≈ 165 µg/mL)
MBC ([15]; clinical isolate 48,575, 18 h): 25.0 µM (≈ 54.9 µg/mL)
MIC50 ([15]; clinical isolate 48,575, 24 h): 13.4 µM (≈ 29.4 µg/mL)
MBC ([16]; clinical isolate 550, 18 h): >100 µM
MIC50 ([16]; clinical isolate 550, 24 h): >100 µM
MBC ([17]; clinical isolate 1,461, 18 h): >100 µM
MIC50 ([17]; clinical isolate 1,461, 24 h): >100 µM

(RRWQWR)4K2Ahx2C2 (disulfide) [LfcinB (20–25)4, branched tetrameric peptide (RRWQWR)4K2Ahx2C2, two dimers linked by a cysteine disulfide bridge]
MIC50 ([1]; S. aureus isolate 43,062, broth microdilution, 24 h 37°C, OD620, 50% growth inhibition): 6.7 µM
MBC ([1]; S. aureus isolate 43,062, plated on agar 18 h 37°C, 99.9% reduction): 12.5 µM
MIC50 ([2]; K. pneumoniae isolate 51,009, broth microdilution, 24 h 37°C, OD620, 50% growth inhibition): 1.6 µM
MBC ([2]; K. pneumoniae isolate 51,009, plated on agar 18 h 37°C, 99.9% reduction): 25.0 µM
MIC50 ([3]; S. aureus isolate 48,577, broth microdilution, 24 h 37°C, OD620, 50% growth inhibition): 6.3 µM
MBC ([3]; S. aureus isolate 48,577, plated on agar 18 h 37°C, 99.9% reduction): 100.0 µM
MIC50 ([4]; E. faecium isolate 1,225, broth microdilution, 24 h 37°C, OD620, 50% growth inhibition): >100 µM
MBC ([4]; E. faecium isolate 1,225, plated on agar 18 h 37°C, 99.9% reduction): 12.5 µM
MIC50 ([5]; K. pneumoniae isolate 50,181, broth microdilution, 24 h 37°C, OD620, 50% growth inhibition): 5.5 µM
MBC ([5]; K. pneumoniae isolate 50,181, plated on agar 18 h 37°C, 99.9% reduction): 100.0 µM
MIC50 ([6]; P. aeruginosa isolate 48,221, broth microdilution, 24 h 37°C, OD620, 50% growth inhibition): 11.9 µM
MBC ([6]; P. aeruginosa isolate 48,221, plated on agar 18 h 37°C, 99.9% reduction): 50.0 µM
MIC50 ([8]; P. aeruginosa isolate 48,526, broth microdilution, 24 h 37°C, OD620, 50% growth inhibition): 24.9 µM
MBC ([8]; P. aeruginosa isolate 48,526, plated on agar 18 h 37°C, 99.9% reduction): >100 µM
MIC50 ([9]; S. aureus isolate 43,337, broth microdilution, 24 h 37°C, OD620, 50% growth inhibition): 6.3 µM
MBC ([9]; S. aureus isolate 43,337, plated on agar 18 h 37°C, 99.9% reduction): 12.5 µM
MIC50 ([10]; E. faecium isolate 1,462, broth microdilution, 24 h 37°C, OD620, 50% growth inhibition): >100 µM
MBC ([10]; E. faecium isolate 1,462, plated on agar 18 h 37°C, 99.9% reduction): 12.5 µM
MIC50 ([11]; K. pneumoniae isolate 50,424, broth microdilution, 24 h 37°C, OD620, 50% growth inhibition): 7.8 µM
MBC ([11]; K. pneumoniae isolate 50,424, plated on agar 18 h 37°C, 99.9% reduction): 100.0 µM
MIC50 ([12]; P. aeruginosa isolate 47,661, broth microdilution, 24 h 37°C, OD620, 50% growth inhibition): 7.5 µM
MBC ([12]; P. aeruginosa isolate 47,661, plated on agar 18 h 37°C, 99.9% reduction): 25.0 µM
MIC50 ([13]; K. pneumoniae isolate 51,048, broth microdilution, 24 h 37°C, OD620, 50% growth inhibition): 5.2 µM
MBC ([13]; K. pneumoniae isolate 51,048, plated on agar 18 h 37°C, 99.9% reduction): 50.0 µM
MIC50 ([14]; P. aeruginosa isolate 48,458, broth microdilution, 24 h 37°C, OD620, 50% growth inhibition): 72.8 µM
MBC ([14]; P. aeruginosa isolate 48,458, plated on agar 18 h 37°C, 99.9% reduction): >100 µM
MIC50 ([15]; S. aureus isolate 48,575, broth microdilution, 24 h 37°C, OD620, 50% growth inhibition): 9.2 µM
MBC ([15]; S. aureus isolate 48,575, plated on agar 18 h 37°C, 99.9% reduction): 12.5 µM
MIC50 ([16]; E. faecium isolate 550, broth microdilution, 24 h 37°C, OD620, 50% growth inhibition): >100 µM
MBC ([16]; E. faecium isolate 550, plated on agar 18 h 37°C, 99.9% reduction): 12.5 µM
MIC50 ([17]; E. faecium isolate 1,461, broth microdilution, 24 h 37°C, OD620, 50% growth inhibition): >100 µM
MBC ([17]; E. faecium isolate 1,461, plated on agar 18 h 37°C, 99.9% reduction): 12.5 µM
